Laboratory results taken from patent US7517873B2, “Substituted pyrimidodiazepines” (Hoffman-La Roche Inc., priority 2007, dated 2009).

Target: T1, GST-PLK1 (Homo sapiens, UniProt P53350)
T1 construct: Full-length, active GST-PLK1 is purified from Sf9 insect cells; made in house; host or cells: Sf9 insect cells
Assay: Biochemical Characterization Assay: GST-PLK1 kinase HTRF assay with GST-p53 substrate
Settings: full-length GST-PLK1, GST-p53 and ATP, 37° C. for 35 minutes, HTRF signal
Method: Biochemical Characterization Assay
Full-length, active GST-PLK1 is purified from Sf9 insect cells, and full-length GST-p53 is purified from E. coli. Anti-phospho p53 antibody is from Cell Signaling Technology. Europium-conjugated anti-rabbit antibody is from PerkinElmer Life and Analytical Sciences. APC-conjugated anti-GST antibody is from Prozyme.
To assay compounds of the invention, two microliters of test compound (0.6 nM-4 mM) in DMSO or plain DMSO for control wells, 38 microliters of 20 mM HEPES pH 7, 50 mM NaCl, 10 mM MgCl2, 0.5 mM TCEP, 0.1 mM sodium orthovanadate, 0.1 mg/mL BSA, and 0.05% Triton X-100 (Kinase Assay Buffer) are added. […] Six microliters of GST-PLK1 (3 ug/mL) in Kinase Assay Buffer are then added and the solution incubated at 37° C. for 35 minutes. Six microliters of solution containing 43 mM EDTA to stop the reaction and a 1:600 dilution of anti-phospho-p53 antibody in 20 mM HEPES pH 7, 50 mM NaCl, and 0.5 mg/mL BSA (Antibody Binding Buffer) are added and the solution incubated at 37° C. for 30 minutes. […] The HTRF signal is read on an Envision reader from PerkinElmer Life and Analytical Sciences.

T1 sequence (P53350 whole entry): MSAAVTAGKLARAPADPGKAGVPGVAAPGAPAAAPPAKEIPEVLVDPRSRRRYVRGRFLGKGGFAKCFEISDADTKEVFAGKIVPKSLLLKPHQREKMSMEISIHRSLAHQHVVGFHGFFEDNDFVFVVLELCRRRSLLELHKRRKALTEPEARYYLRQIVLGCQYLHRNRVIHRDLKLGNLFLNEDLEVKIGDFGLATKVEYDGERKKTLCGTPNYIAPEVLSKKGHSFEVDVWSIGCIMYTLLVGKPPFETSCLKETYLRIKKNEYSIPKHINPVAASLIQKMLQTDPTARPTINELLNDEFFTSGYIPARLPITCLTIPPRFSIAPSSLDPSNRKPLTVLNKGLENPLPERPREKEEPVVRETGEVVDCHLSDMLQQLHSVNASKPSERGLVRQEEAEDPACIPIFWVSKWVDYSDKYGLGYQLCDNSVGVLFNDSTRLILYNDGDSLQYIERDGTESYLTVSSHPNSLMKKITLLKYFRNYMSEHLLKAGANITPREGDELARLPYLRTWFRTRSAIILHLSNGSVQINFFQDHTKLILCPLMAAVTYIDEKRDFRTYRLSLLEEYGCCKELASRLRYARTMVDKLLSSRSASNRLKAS

Structure (SMILES)	IC50
COc1ccc(NC(=O)C2CCN(C(C)=O)CC2)cc1Nc1ncc2c(n1)N(C1CCCC1)CC(C)C(=O)N2C (racemic) [I-80, (rac)-1-Acetyl-piperidine-4-carboxylic acid [3-(9-cyclopentyl-5,7-dimethyl-6-oxo-6,7,8,9-tetrahydro-5H-pyrimido[4,5-b][1,4]diazepin-2-ylamino)-4-methoxy-phenyl]-amide]	0.5 to 5 µM
CCN1CCC(NC(=O)c2ccc(Nc3ncc4c(n3)N(C3CCCC3)CC(C)C(=O)N4C)cc2Cl)CC1 (racemic) [I-81, (rac)-2-Chloro-4-(9-cyclopentyl-5,7-dimethyl-6-oxo-6,7,8,9-tetrahydro-5H-pyrimido[4,5-b][1,4]diazepin-2-ylamino)-N-(1-ethyl-piperidin-4-yl)-benzamide]	0.5 to 5 µM
CC1CN(C2CCCC2)c2nc(Nc3ccc(C(=O)Nc4cccnc4)c(Cl)c3)ncc2N(C)C1=O (racemic) [I-82, (rac)-2-Chloro-4-(9-cyclopentyl-5,7-dimethyl-6-oxo-6,7,8,9-tetrahydro-5H-pyrimido[4,5-b][1,4]diazepin-2-ylamino)-N-pyridin-3-yl-benzamide]	> 5 µM
CC1CN(C2CCCC2)c2nc(Nc3ccc(C(=O)NCCCN(C)C)c(Cl)c3)ncc2N(C)C1=O (racemic) [I-83, (rac)-2-Chloro-4-(9-cyclopentyl-5,7-dimethyl-6-oxo-6,7,8,9-tetrahydro-5H-pyrimido[4,5-b][1,4]diazepin-2-ylamino)-N-(3-dimethylamino-propyl)-benzamide]	0.5 to 5 µM
CC1CN(C2CCCC2)c2nc(Nc3ccc(C(=O)NC4CCCCC4)c(Cl)c3)ncc2N(C)C1=O (racemic) [I-85, (rac)-2-Chloro-N-cyclohexyl-4-(9-cyclopentyl-5,7-dimethyl-6-oxo-6,7,8,9-tetrahydro-5H-pyrimido[4,5-b][1,4]diazepin-2-ylamino)-benzamide]	> 5 µM
CC1CN(C2CCCC2)c2nc(Nc3ccc(C(=O)Nc4ccncc4)c(Cl)c3)ncc2N(C)C1=O (racemic) [I-86, (rac)-2-Chloro-4-(9-cyclopentyl-5,7-dimethyl-6-oxo-6,7,8,9-tetrahydro-5H-pyrimido[4,5-b][1,4]diazepin-2-ylamino)-N-pyridin-4-yl-benzamide]	> 5 µM
CC1CN(C2CCCC2)c2nc(Nc3ccc(C(=O)NCCN(C)C)c(Cl)c3)ncc2N(C)C1=O (racemic) [I-87, (rac)-2-Chloro-4-(9-cyclopentyl-5,7-dimethyl-6-oxo-6,7,8,9-tetrahydro-5H-pyrimido[4,5-b][1,4]diazepin-2-ylamino)-N-(2-dimethylamino-ethyl)-benzamide]	0.5 to 5 µM
CC1CN(C2CCCC2)c2nc(Nc3ccc(C(=O)NC4CCOCC4)c(Cl)c3)ncc2N(C)C1=O (racemic) [I-88, (rac)-2-Chloro-4-(9-cyclopentyl-5,7-dimethyl-6-oxo-6,7,8,9-tetrahydro-5H-pyrimido[4,5-b][1,4]diazepin-2-ylamino)-N-(tetrahydro-pyran-4-yl)-benzamide]	0.5 to 5 µM
COCCCNC(=O)c1cccc(Nc2ncc3c(n2)N(C2CCCC2)CC(C)C(=O)N3C)c1 (racemic) [I-90, (rac)-3-(9-Cyclopentyl-5,7-dimethyl-6-oxo-6,7,8,9-tetrahydro-5H-pyrimido[4,5-b][1,4]diazepin-2-ylamino)-N-(3-methoxy-propyl)-benzamide]	0.5 to 5 µM
CC1CN(C2CCCC2)c2nc(Nc3cccc(C(=O)NC4CCCCC4)c3)ncc2N(C)C1=O (racemic) [I-91, (rac)-N-Cyclohexyl-3-(9-cyclopentyl-5,7-dimethyl-6-oxo-6,7,8,9-tetrahydro-5H-pyrimido[4,5-b][1,4]diazepin-2-ylamino)-benzamide]	> 5 µM
CC1CN(C2CCCC2)c2nc(Nc3cccc(C(=O)Nc4ccncc4)c3)ncc2N(C)C1=O (racemic) [I-92, (rac)-3-(9-Cyclopentyl-5,7-dimethyl-6-oxo-6,7,8,9-tetrahydro-5H-pyrimido[4,5-b][1,4]diazepin-2-ylamino)-N-pyridin-4-yl-benzamide]	> 5 µM
CC1CN(C2CCCC2)c2nc(Nc3cccc(C(=O)NCCN(C)C)c3)ncc2N(C)C1=O (racemic) [I-93, (rac)-3-(9-Cyclopentyl-5,7-dimethyl-6-oxo-6,7,8,9-tetrahydro-5H-pyrimido[4,5-b][1,4]diazepin-2-ylamino)-N-(2-dimethylamino-ethyl)-benzamide]	0.5 to 5 µM
COc1cc(C(=O)N2CCOCC2)ccc1Nc1ncc2c(n1)N(C1CCCCC1)CCC(=O)N2 [I-31, 9-Cyclohexyl-2-[2-methoxy-4-(morpholine-4-carbonyl)-phenylamino]-5,7,8,9-tetrahydro-pyrimido[4,5-b][1,4]diazepin-6-one]	> 5 µM
COc1cc(C(=O)N2CCCCC2)ccc1Nc1ncc2c(n1)N(C1CCCCC1)CCC(=O)N2 [I-32, 9-Cyclohexyl-2-[2-methoxy-4-(piperidine-1-carbonyl)-phenylamino]-5,7,8,9-tetrahydro-pyrimido[4,5-b][1,4]diazepin-6-one]	> 5 µM
COc1cc(C(=O)NC2CCOCC2)ccc1Nc1ncc2c(n1)N(C1CCCCC1)CCC(=O)N2 [I-33, 4-(9-Cyclohexyl-6-oxo-6,7,8,9-tetrahydro-5H-pyrimido[4,5-b][1,4]diazepin-2-ylamino)-3-methoxy-N-(tetrahydro-pyran-4-yl)-benzamide]	> 5 µM

Continued, values first:

IC50	Structure (SMILES)
< 0.5 µM	COc1cc(C(=O)NN)ccc1Nc1ncc2c(n1)N(C1CCCC1)CC(C)C(=O)N2C (racemic) [I-79, (rac)-4-(9-Cyclopentyl-5,7-dimethyl-6-oxo-6,7,8,9-tetrahydro-5H-pyrimido[4,5-b][1,4]diazepin-2-ylamino)-3-methoxy-benzoic acid hydrazide]
< 0.5 µM	CC1CN(C2CCCC2)c2nc(Nc3ccc(C(=O)NC4CCN(C)CC4)c(Cl)c3)ncc2N(C)C1=O (racemic) [I-84, (rac)-2-Chloro-4-(9-cyclopentyl-5,7-dimethyl-6-oxo-6,7,8,9-tetrahydro-5H-pyrimido[4,5-b][1,4]diazepin-2-ylamino)-N-(1-methyl-piperidin-4-yl)-benzamide]
0.5 to 5 µM	CCN1CCC(NC(=O)c2cccc(Nc3ncc4c(n3)N(C3CCCC3)CC(C)C(=O)N4C)c2)CC1 (racemic) [I-89, (rac)-3-(9-Cyclopentyl-5,7-dimethyl-6-oxo-6,7,8,9-tetrahydro-5H-pyrimido[4,5-b][1,4]diazepin-2-ylamino)-N-(1-ethyl-piperidin-4-yl)-benzamide]
< 0.5 µM	COc1cc(C(=O)NC2CCN(C)CC2)ccc1Nc1ncc2c(n1)N(C1CCCC1)C[C@@H](C)C(=O)N2C [I-2a, 7R-4-(9-Cyclopentyl-5,7-dimethyl-6-oxo-6,7,8,9-tetrahydro-5H-pyrimido[4,5-b][1,4]diazepin-2-ylamino)-3-methoxy-N-(1-methyl-piperidin-4-yl)-benzamide]
< 0.5 µM	COc1cc(C(=O)NC2CCN(C)CC2)ccc1Nc1ncc2c(n1)N(C1CCCC1)C[C@H](C)C(=O)N2C [I-2b, 7S-4-(9-cyclopentyl-5,7-dimethyl-6-oxo-6,7,8,9-tetrahydro-5H-pyrimido[4,5-b][1,4]diazepin-2-ylamino)-3-methoxy-N-(1-methyl-piperidin-4-yl)-benzamide]
0.5 to 5 µM	COc1cc(C(=O)NC2CCN(C)CC2)ccc1Nc1ncc2c(n1)N(C1CCCC1)CCC(=O)N2 [I-21, 4-(9-Cyclopentyl-6-oxo-6,7,8,9-tetrahydro-5H-pyrimido[4,5-b][1,4]diazepin-2-ylamino)-3-methoxy-N-(1-methyl-piperidin-4-yl)-benzamide]
0.5 to 5 µM	COc1cc(C(=O)NC2CCN(C)CC2)ccc1Nc1ncc2c(n1)N(Cc1ccccc1)CCC(=O)N2C [I-22, 4-(9-Benzyl-5-methyl-6-oxo-6,7,8,9-tetrahydro-5H-pyrimido[4,5-b][1,4]diazepin-2-ylamino)-3-methoxy-N-(1-methyl-piperidin-4-yl)-benzamide]
< 0.5 µM	COc1cc(C(=O)NC2CCN(C)CC2)ccc1Nc1ncc2c(n1)N(C1CCC1)CCC(=O)N2C [I-24, 4-(9-Cyclobutyl-5-methyl-6-oxo-6,7,8,9-tetrahydro-5H-pyrimido[4,5-b][1,4]diazepin-2-ylamino)-3-methoxy-N-(1-methyl-piperidin-4-yl)-benzamide]
> 5 µM	COc1ccccc1Nc1ncc2c(n1)N(C1CCC1)CCC(=O)N2C [I-25, 9-Cyclobutyl-2-(2-methoxy-phenylamino)-5-methyl-5,7,8,9-tetrahydro-pyrimido[4,5-b][1,4]diazepin-6-one]
> 5 µM	COc1cc(C(=O)Nc2ccccc2)ccc1Nc1ncc2c(n1)N(C1CCCCC1)CCC(=O)N2 [I-28, 4-(9-Cyclohexyl-6-oxo-6,7,8,9-tetrahydro-5H-pyrimido[4,5-b][1,4]diazepin-2-ylamino)-3-methoxy-N-phenyl-benzamide]
0.5 to 5 µM	COc1cc(C(=O)NC2CCN(C)CC2)ccc1Nc1ncc2c(n1)N(C1CCCCC1)CCC(=O)N2 [I-29, 4-(9-Cyclohexyl-6-oxo-6,7,8,9-tetrahydro-5H-pyrimido[4,5-b][1,4]diazepin-2-ylamino)-3-methoxy-N-(1-methyl-piperidin-4-yl)-benzamide]
> 5 µM	CCCNC(=O)c1ccc(Nc2ncc3c(n2)N(C2CCCCC2)CCC(=O)N3)c(OC)c1 [I-30, 4-(9-Cyclohexyl-6-oxo-6,7,8,9-tetrahydro-5H-pyrimido[4,5-b][1,4]diazepin-2-ylamino)-3-methoxy-N-propyl-benzamide]
